{"source": "paper PMC10831276", "about": "“A viral insulin-like peptide inhibits IGF-1 receptor phosphorylation and regulates IGF1R gene expression” (Molecular Metabolism, 2024)", "key": {"C57BL/6 J mice": {"system": "C57BL/6 J mice", "experiment": "Insulin tolerance test", "type": "in vivo, mouse", "method": "All animal studies presented in this study complied with the regulations and ethics guidelines of the NIH and were approved by the Boston College Institutional Animal Care and Use Committee. Insulin tolerance testing was performed on 12 to 17-week-old male C57BL/6 J mice (Jackson Laboratory). Mice were grouped according to their weight before experiment. After 6-hour starvation, mice were injected i.p. with insulin (Humulin, 6 nmol/kg, corresponds to 1.0 U/kg, 1x) (Eli Lilly), scMFRV-VILP (6 nmol/kg, 1x and 60 nmol/kg, 10x), dcMFRV-VILP (60 nmol/kg, 10x), dcLCDV-Sa-VILP (0.3 μmol/kg, 50x), and saline as a control (n = 4–11 per condition). Tail-vein blood glucose was measured until 3 h post-injection using an Infinity glucometer (US Diagnostic Inc.). Statistical analysis was done using Mixed effects analysis - Dunnett's multiple comparisons test."}, "IGF1R gene expression": {"system": "IGF1R gene expression", "experiment": "IGF1R gene expression (RT-qPCR) in R+ cells after repeated stimulation with synthetic ligand", "type": "cell-based, human", "settings": "100 nM ligand every 3 h over 24 h, normalised to β-actin, compared to basal, n = 3", "method": "To assess the potential impact of external VILP exposure on IGF1R gene expression, we employed R^+ cells, seeding 30 × 10^4 cells per well. Following a 24-hour incubation period, cells were washed twice with PBS and were subsequently serum-starved for 4 h before sequential stimulation with various ligands (scMFRV-VILP, dcMFRV-VILP, and IGF-1). The cells were stimulated with 100 nM of each ligand every 3 h over a 24-hour period. Post the final stimulation, the cells were snap-frozen and stored at −80 °C.\nSubsequently, the lysates were transferred to microtubes and chloroform in ratio 5:1 (Tri Reagent: chloroform) was added. The mixture was vortexed for 15s, incubated at RT for 5 min and centrifuged for 15 min at 12000g, 4 °C. The upper aqueus phase was transferred to new tubes, 100 % ethanol was added to give a 1:1 volumetric ratio and subsequently the Direct-zol RNA Miniprep Kit (Zymo Research) was used according to the manufacturer's instructions. cDNA synthesis was performed using Maxima™ H Minus cDNA Syntheis Master Mix (ThermoFisher Scientific) according to manufacturer's instructions. The qPCR was performed using Power SYBR® Green PCR Master Mix (Applied Biosystems) according to manufacturer's instructions on QuantStudio 3 (Applied Biosystems). Statistical analysis was performed using ordinary one-way ANOVA followed by Tukey's multiple comparison test."}, "R+ cells": {"system": "R+ cells", "experiment": "BrdU proliferation assay of transfected R+ cells", "type": "cell-based, mouse", "settings": "10 nM IGF-1 for 24 h; BrdU for last 6 h", "method": "R^+ cells (described in 2.4) were seeded into 96-well plates so that they reached ∼50 % confluency after overnight incubation. […] Three hours post transfection, Opti-MEM medium was exchanged for regular culture medium. 24 h post transfection, cells were washed once with PBS and starved in serum free culture medium. After 24 h of starvation, cells were stimulated with IGF-1 (diluted in serum free medium) to reach final concentration of 10 nM IGF-1 per well for another 24 h period (serum free medium only was added to the non-stimulated wells). To determine the rate of proliferation in each well, BrdU Cell Proliferation Assay (Sigma–Aldrich, #QIA58) was used. Manufacturer's instructions were followed, with the BrdU probe being added for the last 6 h of the 24 h stimulation with IGF-1. Absorbance at dual wavelengths of 450–540 nm was measured using a spectrophotometric plate reader. The experiment was repeated at least three times and for each biological replicate, results were expressed as relative change compared to non-stimulated cells transfected with empty vector. Statistical analysis was performed using paired two-tailed Student's t-test."}, "human IR-B": {"target": "T1, human IR-B (Homo sapiens, UniProt P06213)", "T1 construct": "expressed in transfected cells; host or cells: murine embryonic fibroblasts from IGF1R knockout mice, stably transfected with IR-B (R-/IR-B cells)", "T1 sequence (P06213 28-758 limits assumed)": "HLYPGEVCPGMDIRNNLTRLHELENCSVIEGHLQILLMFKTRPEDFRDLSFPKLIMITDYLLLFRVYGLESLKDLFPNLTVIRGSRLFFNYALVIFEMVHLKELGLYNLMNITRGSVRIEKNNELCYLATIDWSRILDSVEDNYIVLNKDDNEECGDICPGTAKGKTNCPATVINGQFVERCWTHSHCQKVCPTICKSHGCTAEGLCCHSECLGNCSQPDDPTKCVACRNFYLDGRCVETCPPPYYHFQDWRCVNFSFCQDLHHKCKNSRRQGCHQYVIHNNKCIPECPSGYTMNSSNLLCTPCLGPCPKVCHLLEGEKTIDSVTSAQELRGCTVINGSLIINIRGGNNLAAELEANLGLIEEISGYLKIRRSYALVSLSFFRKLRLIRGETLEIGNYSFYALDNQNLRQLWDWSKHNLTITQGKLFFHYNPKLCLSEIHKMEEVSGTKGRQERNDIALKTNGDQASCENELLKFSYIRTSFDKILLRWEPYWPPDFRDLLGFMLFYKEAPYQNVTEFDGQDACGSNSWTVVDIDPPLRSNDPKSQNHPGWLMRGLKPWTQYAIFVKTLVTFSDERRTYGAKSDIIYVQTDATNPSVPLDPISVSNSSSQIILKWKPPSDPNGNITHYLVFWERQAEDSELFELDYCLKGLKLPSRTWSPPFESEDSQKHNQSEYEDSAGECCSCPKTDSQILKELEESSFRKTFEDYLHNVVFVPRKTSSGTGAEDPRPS", "T1 sequence (P06213 763-1382 limits assumed)": "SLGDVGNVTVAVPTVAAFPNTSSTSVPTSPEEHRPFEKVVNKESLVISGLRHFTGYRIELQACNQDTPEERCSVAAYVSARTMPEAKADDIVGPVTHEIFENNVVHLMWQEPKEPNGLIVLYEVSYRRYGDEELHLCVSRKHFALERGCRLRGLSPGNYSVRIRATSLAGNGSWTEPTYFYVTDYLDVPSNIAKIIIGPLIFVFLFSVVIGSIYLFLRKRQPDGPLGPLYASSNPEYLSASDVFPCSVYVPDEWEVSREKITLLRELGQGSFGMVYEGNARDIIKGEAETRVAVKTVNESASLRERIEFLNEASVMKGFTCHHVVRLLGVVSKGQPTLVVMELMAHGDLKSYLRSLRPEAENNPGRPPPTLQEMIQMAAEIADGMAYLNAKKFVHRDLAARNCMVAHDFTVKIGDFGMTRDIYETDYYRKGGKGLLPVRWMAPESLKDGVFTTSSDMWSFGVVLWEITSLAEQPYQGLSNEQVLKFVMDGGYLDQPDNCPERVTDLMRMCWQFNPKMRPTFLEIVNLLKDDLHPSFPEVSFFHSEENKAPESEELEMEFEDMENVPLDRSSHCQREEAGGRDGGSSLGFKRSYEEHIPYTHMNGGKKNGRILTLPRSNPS", "experiment": "Whole-cell binding competition assay with 125I-insulin on R-/IR-B fibroblasts", "settings": "competition with 125I-insulin, R-/IR-B cells; mean ± S.D. (n), n ≥ 3; measurement series #; SD", "method": "(§1) For receptor binding studies, human IM-9 lymphoblasts, that express IR-A exclusively, and R^−/IR-B and R^+ murine embryonic fibroblasts were used for a whole-cell receptor-binding assay. Receptor binding assays on IR-A were perfomed accoding to Morcavallo et al. [24]and binding assays on IR-B and IGF1R were performed according to Kosinova et al.. […] Human ^125I-insulin was prepared as described by Asai et al. and human ^125I-IGF-1 was prepared as described in Kertisova et al.."}, "human IR-A [1]": {"target": "T2, human IR-A (Homo sapiens, UniProt P06213)", "T2 sequence (P06213 763-1382)": "as the sequence (P06213 763-1382 limits assumed) above", "T2 sequence (P06213 other isoform, or with tags, fused parts or gaps)": "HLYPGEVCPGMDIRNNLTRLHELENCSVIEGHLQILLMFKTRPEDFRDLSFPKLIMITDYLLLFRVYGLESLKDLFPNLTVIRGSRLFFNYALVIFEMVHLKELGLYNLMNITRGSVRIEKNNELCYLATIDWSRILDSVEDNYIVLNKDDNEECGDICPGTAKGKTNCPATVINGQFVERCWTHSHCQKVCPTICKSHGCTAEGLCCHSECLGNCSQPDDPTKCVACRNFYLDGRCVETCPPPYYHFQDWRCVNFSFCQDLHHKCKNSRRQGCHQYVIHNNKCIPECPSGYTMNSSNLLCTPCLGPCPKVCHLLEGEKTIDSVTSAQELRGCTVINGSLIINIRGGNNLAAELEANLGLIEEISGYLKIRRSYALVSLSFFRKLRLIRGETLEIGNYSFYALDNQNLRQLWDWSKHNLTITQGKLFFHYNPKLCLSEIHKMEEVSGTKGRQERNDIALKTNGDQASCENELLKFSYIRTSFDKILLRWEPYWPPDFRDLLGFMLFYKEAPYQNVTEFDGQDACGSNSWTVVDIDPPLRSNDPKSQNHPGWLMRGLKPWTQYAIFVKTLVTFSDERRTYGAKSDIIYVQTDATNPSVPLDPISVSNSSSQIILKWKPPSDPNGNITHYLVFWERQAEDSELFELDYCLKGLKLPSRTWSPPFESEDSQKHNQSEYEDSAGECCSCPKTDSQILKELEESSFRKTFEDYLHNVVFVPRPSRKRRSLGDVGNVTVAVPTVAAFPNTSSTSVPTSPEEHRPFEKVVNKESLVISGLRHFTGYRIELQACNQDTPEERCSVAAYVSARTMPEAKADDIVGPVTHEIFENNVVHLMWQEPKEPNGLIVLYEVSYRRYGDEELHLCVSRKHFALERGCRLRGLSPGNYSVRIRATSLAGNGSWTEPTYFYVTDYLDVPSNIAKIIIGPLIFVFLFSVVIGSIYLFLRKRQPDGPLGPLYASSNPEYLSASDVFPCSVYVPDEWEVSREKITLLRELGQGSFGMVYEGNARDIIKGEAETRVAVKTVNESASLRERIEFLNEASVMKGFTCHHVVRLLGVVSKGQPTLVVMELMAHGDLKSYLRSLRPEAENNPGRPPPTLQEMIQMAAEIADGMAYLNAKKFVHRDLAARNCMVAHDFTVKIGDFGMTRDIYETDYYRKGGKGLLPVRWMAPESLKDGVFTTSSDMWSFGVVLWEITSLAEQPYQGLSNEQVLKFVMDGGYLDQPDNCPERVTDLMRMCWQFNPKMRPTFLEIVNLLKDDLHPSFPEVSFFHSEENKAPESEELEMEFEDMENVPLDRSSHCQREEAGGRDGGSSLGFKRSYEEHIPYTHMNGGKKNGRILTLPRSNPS", "experiment": "cell-based", "design": "human IM-9 lymphoblasts, that express IR-A exclusively", "method": "(§2) Insulin or IGF-1 receptor phosphorylation was measured as described in [13]. Briefly, HEK293 cells overexpressing human IR-A, IR-B, or IGF-1R were plated in 96-well tissue culture plates and cultured for 16–20 h at 37 °C, 5 % CO2, and 90 % humidity. […] For antagonism studies, test peptides were pre-mixed with 10 nM IGF-1. After 15 min incubation at 37 °C in humidified atmosphere with 5 % CO2, the cells were fixed with 5 % paraformaldehyde for 20 min at room temperature, washed twice with PBS (pH 7.4) and blocked with 2 % BSA in PBS for 1 h. The plate was washed three times, filled with anti-phospho-IR/IGF1R (Tyr1158) antibody (Millipore) and incubated for 3 h at room temperature, after which the plate was washed four times and filled with goat anti-rabbit secondary antibody (#A16110, ThermoFisher). Following 30 min incubation and another four washes, 0.1 mL of TMB One Solution substrate (#00-2023; Invitrogen) was added to each well. Color development was stopped 10 min later by adding 0.05 mL 1 M HCl."}, "human IGF1R [2]": {"target": "T3, human IGF1R (Homo sapiens, UniProt P08069)", "experiment": "cell-based", "design": "expressed in transfected cells; host or cells: HEK293 cells overexpressing human IGF-1R", "method": "as §2"}, "human IR-A [3]": {"target": "T2, human IR-A", "experiment": "Whole-cell binding competition assay with 125I-insulin on IM-9 lymphoblasts", "design": "human IM-9 lymphoblasts, that express IR-A exclusively; host or cells: human IM-9 lymphoblasts (whole cells)", "method": "as §1"}, "human IGF1R [4]": {"target": "T3, human IGF1R", "experiment": "Whole-cell binding competition assay with 125I-IGF-1 on R+ fibroblasts", "design": "expressed in transfected cells; host or cells: murine embryonic fibroblasts from IGF1R knockout mice, stably transfected with IGF1R (R+ cells)", "settings": "competition with 125I-IGF-1, R+ cells; mean ± S.D. (n), n ≥ 3; measurement series #; SD", "method": "as §1"}, "IR-B": {"system": "IR-B", "experiment": "Insulin/IGF signaling via IR-B in R-/IR-B cells (western blot)", "type": "cell-based, human", "settings": "0.1-500 nM, 30 min", "method": "For receptor phosphorylation and downstream signaling experiments, R^−/IR-A, R^−/IR-B and R^+ cells (described in 2.4) were used to explore signaling properties of ligands via specific receptors. Cells were seeded into 24-well plates (10^5 cells per well) in 300 μl of culture medium (described above) and grown overnight. Afterwards, cells were washed twice with PBS and starved in serum-free culture medium for 4 h. After the starvation, cells were washed with pure DMEM medium and incubated with ligand diluted in pure DMEM medium (0, 0.1, 1, 10, 100, 250 and 500 nM) in 37 °C for 30 min. For co-incubation of a VILP with 10 nM insulin/IGF-1, increasing concentrations of the VILP were pre-mixed with insulin or IGF-1 prior stimulation of cells. The reaction was terminated by washing the cells with ice-cold PBS (HyClone) followed by snap freezing in liquid nitrogene. […] Protein concentration in each sample was evaluated using BCA Assay (Thermo Fisher Scientific). Samples were further diluted using sample buffer for SDS-PAGE (final concentration 62.5 mM Tris, 2 % SDS (w/v), 10 % glycerol (v/v). 0.01 % bromphenol blue (w/v), 0.1 M DTT (w/v), pH 6.8 (HCl)) and routinely analyzed using SDS-PAGE and immunoblotting. […] Western blots were quantified using Image Lab 6.0.1 (Bio-Rad). […]"}}, "note": "Bridge positions count the residues as written; N and C are the ends. Ends that are not written are not given here. I, II: the chains in the order shown."}
{"substance": "Human insulin: human insulin, supplied by Merck; Humulin (Eli Lilly) in the insulin tolerance test [reference compound]", "values": [{"measurement": "maximum decrease in blood glucose levels", "setting": "C57BL/6 J mice; 6 nmol/kg (1x) i.p., male C57BL/6 J mice, 6 h starved", "value": "~60", "unit": "%"}]}
{"substance": "Human IGF-1: human insulin like growth factor-1, supplied by Merck [reference compound]", "values": [{"measurement": "decrease of IGF-1R gene expression", "setting": "IGF1R gene expression", "value": "neither dcMFRV-VILP nor IGF-1 demonstrated a similar effect"}, {"measurement": "increase in cell proliferation in cells transfected with empty vector", "setting": "R+ cells", "value": 2.2, "unit": "fold"}]}
{"substance": "I: ILAQTLCGSELVDALELVCGEYGGIYRPPK / II: KIVDVCCTTKGCNYMDLKQYCN (disulfide I:7-II:7, I:19-II:21, II:6-II:12) [dcLCDV-Sa]", "values": [{"measurement": "Kd", "setting": "human IR-B", "value": "994 ± 55", "unit": "nM"}, {"measurement": "EC50", "setting": "human IR-A [1]", "value": 198, "unit": "nM"}, {"measurement": "EC50", "setting": "human IGF1R [2]", "value": 282, "unit": "nM"}, {"measurement": "Kd", "setting": "human IR-A [3]; competition with 125I-insulin, IM-9 cells, mean ± S.D. (n), n ≥ 3 binding curves each in duplicate, measurement series #, SD", "value": "487 ± 287", "unit": "nM"}, {"measurement": "Kd", "setting": "human IGF1R [4]", "value": "639 ± 453", "unit": "nM"}]}
{"substance": "I: VLTDKLCGKDLVDALLLVCGEKGVYSPKMG / II: GIADVCCTSANGCDLNFLEKFCKT (disulfide I:7-II:7, I:19-II:22, II:6-II:13) [dcMFRV]", "values": [{"measurement": "maximum response of IR-B autophosphorylation compared to 10 nM insulin", "setting": "IR-B", "value": "comparable maximum response"}, {"measurement": "decrease of IGF-1R gene expression", "setting": "IGF1R gene expression", "value": "neither dcMFRV-VILP nor IGF-1 demonstrated a similar effect"}, {"measurement": "glucose-lowering effect", "setting": "C57BL/6 J mice; 60 nmol/kg (10x) i.p., dcMFRV-VILP", "value": "comparable effect to scMFRV-VILP (1x)"}, {"measurement": "affinity on IR-A, fold stronger than IGF-1", "setting": "human IR-A [3]; ratio of Kd values", "value": 1.5, "unit": "fold"}, {"measurement": "fold difference in IR-A affinity, dcMFRV-VILP higher than the sc form", "setting": "human IR-A [3]; ratio of Kd values", "value": "about 3 fold"}]}
